Laboratory results as given in PMC11249646, “Small-Molecule Disruptors of the Interaction between Calcium- and Integrin-Binding Protein 1 and Integrin αIIbβ3 as Novel Antiplatelet Agents” (ACS Pharmacology & Translational Science, 2024).
Read-outs that look alike come from different tables or passages of the source.

How the values were obtained:
[1] = target: T1, CIB1 and αIIb interaction (CIB1-GST : F-αIIb peptide) (Homo sapiens, UniProt Q99828); assay: FP assay, 1536-well qHTS format (primary and confirmatory screen); format: binding; conditions: for CONFIRMATORY SCREEN Curve Class / Curve Class (confirmatory screen): qHTS curve class
T1 construct: made in house; host or cells: BL-21 plus RIL cells (E. coli)
T1 sequence (Q99828 1-191): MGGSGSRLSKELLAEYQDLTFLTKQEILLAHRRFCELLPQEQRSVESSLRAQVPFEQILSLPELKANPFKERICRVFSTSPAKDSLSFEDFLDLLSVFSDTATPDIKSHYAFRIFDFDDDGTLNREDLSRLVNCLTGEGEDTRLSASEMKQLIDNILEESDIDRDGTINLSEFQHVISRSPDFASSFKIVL

[2] = target: T2, GST-CIB1 : F-scrambled peptide (Homo sapiens, UniProt Q99828); assay: FP scrambled-peptide counter screen, 1536-well format; format: binding; conditions: for COUNTERSCREEN Curve Class / Curve Class (counterscreen): qHTS curve class; for IC50: read-out: IC50 [μM] (counterscreen); for Confirm? (counterscreen): YES/NO
T2 construct: made in house; host or cells: BL-21 plus RIL cells (E. coli)
T2 sequence (Q99828 1-191): T1 sequence (Q99828 1-191)

[3] = qHTS primary screen hits, Table S2, negative = inhibition
[4] = qHTS primary screen hits, Table S2, negative sign = inhibitory curve
[5] = qHTS primary screen hits, Table S2, read-out: IC50
[6] = Table S3, confirmatory screen, YES/NO call
[7] = Table S3, confirmatory screen, a negative sign marks inhibitory curves
[8] = Table S3, confirmatory screen, negative = inhibition
[9] = Table S3, confirmatory screen, read-out: IC50 [μM] (confirmatory screen)
[10] = qHTS primary screen hits, Table S2, negative sign = inhibitory curve, several classes where COUNT > 1
[11] = Table S3, counterscreen, a negative sign marks inhibitory curves
[12] = Table S3, counterscreen, negative = inhibition
[13] = confirmatory screen, negative sign = inhibitory curve
[14] = confirmatory screen, read-out: IC50 [μM] (confirmatory screen)
[15] = counterscreen, negative sign = inhibitory curve
[16] = qHTS FP screen hits, Table S2, negative = inhibition
[17] = qHTS FP screen hits, Table S2, one class per curve where COUNT > 1, negative sign = inhibitory curve
[18] = qHTS FP screen hits, Table S2, read-out: IC50

Row | Curve Class (confirmatory screen) [1, 7] | Efficacy (%) (confirmatory screen) [1, 8] | Efficacy (%) (counterscreen) [2, 12] | IC50 ([2]; Table S3, counterscreen) [µM] | Efficacy (%) [1, 16] [%] | IC50 [1, 18] [µM] | Structure (SMILES) | Efficacy (%) [1, 3] [%] | IC50 [1, 5] [µM] | Curve Class [1, 10] | Efficacy (%) (confirmatory screen) ([1]; confirmatory screen) | Confirm? (confirmatory screen) ([1]; confirmatory screen, YES/NO) | Curve Class (confirmatory screen) [1, 13] | IC50 [1, 14] [µM] | Efficacy (%) (counterscreen) ([2]; counterscreen) | Curve Class (counterscreen) [2, 15] | IC50 ([2]; counterscreen) [µM] | other results
1 | -2.2 | -78 | -91 | 44.7 | – | – | Nc1cccc2c1C(=O)N(C1CCC(=O)NC1=O)C2=O (stereo not shown) [NCGC00346551-01] | -43 | 21.5 | -2.2 | – | – | – | – | – | – | – | Confirm? (confirmatory screen) [1, 6]: YES; IC50 [1, 9]: 50.1 µM; Curve Class (counterscreen) [2, 11]: -2.1
2 | -1.3 | -102 | -108 | 35.5 | -37 | 15.2 | CN1CCCN(C(=O)c2cccc(-c3ccc(/C=C4/C(=O)Nc5ccc(Cl)cc54)o3)c2)CC1 [NCGC00346935-01] | – | – | – | – | – | – | – | – | – | – | Confirm? (confirmatory screen) [1, 6]: YES; IC50 [1, 9]: 35.5 µM; Curve Class [1, 17]: -2.2; Curve Class (counterscreen) [2, 11]: -1.1
3 | – | – | – | – | -21 | 31.6 | COc1ccc(NC(=O)c2[nH]c(C)c(C(C)=O)c2C)cc1S(=O)(=O)Nc1ccccc1C#N [NCGC00348145-01] | – | – | – | -41 | YES | -2.2 | 35.5 | 157 | 3 | 39.8 | Confirm? (counterscreen) ([2]; counterscreen): YES
4 | – | – | – | – | -64 | 50.1 | COc1nc2ccc(Br)cc2cc1[C@@H](c1ccccc1)[C@@](O)(CCN(C)C)c1cccc2ccccc12 [NCGC00348215-04] | – | – | – | -94 | YES | -2.2 | 89.1 | -83 | -2.2 | 89.1 | Curve Class [1, 17]: -2.2
5 | -1.4 | -52 | -60 | 17.8 | – | – | COc1cccc(C(=O)c2no[n+]([O-])c2C(=O)c2cccc(OC)c2)c1 [NCGC00351157-02] | -53 | 22.2 | – | – | – | – | – | – | – | – | Confirm? (confirmatory screen) [1, 6]: YES; IC50 [1, 9]: 12.6 µM; Curve Class (counterscreen) [2, 11]: -1.2
6 | – | – | – | – | -50 | 35.5 | Cc1cc(/N=N/c2ccc(S(=O)(=O)Nc3ccccn3)cc2)c(N)cc1O [NCGC00356068-01] | – | – | – | -64 | YES | -2.2 | 39.8 | -44 | -1.2 | 44.7 | Curve Class [1, 17]: -2.2
7 | 4 | -16 | 64 | 89.1 | -32 | 3.5 | O=C(O)c1csc(-n2nc(-c3ccc(F)c(F)c3)c3cccnc32)n1 [NCGC00356667-01] | – | – | – | – | – | – | – | – | – | – | Curve Class [1, 17]: -1.2; Curve Class (counterscreen) [2, 11]: 3
8 | – | – | – | – | -56 | 50.1 | CN1CCN([C@H]2CC[C@H](n3cc(-c4ccc(Oc5ccccc5)cc4)c4c(N)ncnc43)CC2)CC1.Cl [NCGC00370980-02] | – | – | – | -44 | YES | -2.2 | – | -17 | 4 | – | Curve Class [1, 17]: -2.2; Confirm? (counterscreen) ([2]; counterscreen): YES

Further lines, the compound ahead of its results:

Row | Structure (SMILES) | Curve Class (confirmatory screen) [1, 7] | Efficacy (%) (confirmatory screen) [1, 8] | Efficacy (%) (counterscreen) [2, 12] | IC50 ([2]; Table S3, counterscreen) [µM] | Efficacy (%) [1, 16] [%] | IC50 [1, 18] [µM] | Efficacy (%) [1, 3] [%] | IC50 [1, 5] [µM] | Curve Class [1, 10] | Efficacy (%) (confirmatory screen) ([1]; confirmatory screen) | Confirm? (confirmatory screen) ([1]; confirmatory screen, YES/NO) | Curve Class (confirmatory screen) [1, 13] | IC50 [1, 14] [µM] | Efficacy (%) (counterscreen) ([2]; counterscreen) | Curve Class (counterscreen) [2, 15] | IC50 ([2]; counterscreen) [µM] | other results
9 | Cc1nc(C(=O)NCC(=O)O)c(O)c2ccc(Oc3ccccc3)cc12 [NCGC00346527-01] | – | – | – | – | – | – | -24 | 38.5 | – | – | – | – | – | – | – | – | CONFIRMATORY SCREEN Efficacy (%) ([1]; confirmatory screen): -26%; CONFIRMATORY SCREEN Curve Class ([1]; confirmatory screen): 4; Curve Class [1, 4]: -2.4; COUNTERSCREEN Efficacy (%) ([2]; counterscreen): 0%; COUNTERSCREEN Curve Class ([2]; counterscreen): 4
10 | C=C1C(=O)[C@@]23C(CC[C@@H]1[C@H]2O)[C@@]12CO[C@]3(O)[C@@H](O)[C@@H]1C(C)(C)CC[C@@H]2O (stereo partly shown) [NCGC00346595-02] | – | – | – | – | – | – | – | – | – | -89 | YES | -1.1 | 25.1 | -60 | -1.2 | 15.8 | –
11 | O=C(O)CCNc1cc(N2CCc3ccccc3CC2)nc(-c2ccccn2)n1 [NCGC00347943-01] | – | – | – | – | – | – | – | – | – | – | – | – | – | – | – | – | CONFIRMATORY SCREEN Efficacy (%) ([1]; confirmatory screen): -28%; CONFIRMATORY SCREEN Curve Class ([1]; confirmatory screen): 4; COUNTERSCREEN Efficacy (%) ([2]; counterscreen): -35%; COUNTERSCREEN Curve Class ([2]; counterscreen): 4
12 | CCCCCCCCn1cc(CC(N)=O)c2cc(-c3cccc(C)c3)ccc21.O=C(O)C(F)(F)F [NCGC00348156-02] | -2.4 | -95 | -121 | 39.8 | -74 | 50.1 | – | – | – | – | – | – | – | – | – | – | Confirm? (confirmatory screen) [1, 6]: YES; IC50 [1, 9]: 44.7 µM; Curve Class (counterscreen) [2, 11]: -2.1
13 | CC1=C(C(=O)Nc2cccc(C(=O)O)c2)C(c2ccccc2Cl)N=C(Nc2nc3ccccc3o2)N1.O=C(O)C(F)(F)F (stereo not shown) [NCGC00351024-01] | – | – | – | – | -37 | 39.8 | – | – | – | -26 | YES | -2.4 | – | 141 | – | 79.4 | Curve Class [1, 17]: -2.2; Confirm? (counterscreen) ([2]; counterscreen): YES
14 | Cc1cccc(C(=O)c2no[n+]([O-])c2C(=O)c2cccc(C)c2)c1.O=C(O)C(F)(F)F [NCGC00351156-01] | – | – | – | – | – | – | -52 | 7.9 | -1.2 | -73 | YES | -2.2 | 31.6 | -65 | -1.2 | 10 | –
15 | Cc1ccccc1C(=O)N1CCc2cc(-c3nc(NC(=O)Cc4ccc(OCCOCCOCCN)cc4)sc3C)ccc21.O=C(O)C(F)(F)F [NCGC00351618-01] | – | – | – | – | – | – | -25 | 17.8 | -1.4 | -41 | YES | -1.2 | 39.8 | -31 | -2.4 | 11.2 | –
16 | Cn1ccc(=Nc2ccc(NC(=O)c3ccc(/N=c4\ccn(C)c5ccc([N+](=O)[O-])cc45)cc3[N+](=O)[O-])cc2)cc1.O=C(O)C(F)(F)F [NCGC00356066-02] | – | – | – | – | – | – | -65 | 39.8 | -2.2 | -82 | YES | -1.2 | – | -46 | -1.2 | 12.6 | –
17 | O=C(O)C(F)(F)F.O=C(O)c1csc(-n2nc(-c3ccc(F)c(F)c3)c3cccc(O)c32)n1 [NCGC00356386-01] | – | – | – | – | -22 | 3.2 | – | – | – | – | – | – | – | – | – | – | CONFIRMATORY SCREEN Efficacy (%) ([1]; confirmatory screen): -21%; CONFIRMATORY SCREEN Curve Class ([1]; confirmatory screen): 4; COUNTERSCREEN Efficacy (%) ([2]; counterscreen): 0%; COUNTERSCREEN Curve Class ([2]; counterscreen): 4
18 | NC(=O)c1ccc(Cc2c(-c3cccc(-c4ccccc4)c3)nn(-c3nc(C(=O)O)cs3)c2O)cc1.O=C(O)C(F)(F)F [NCGC00356638-01] | – | – | – | – | – | – | -59 | 56.2 | -2.2 | -125 | YES | -2.1 | 70.8 | -60 | -2.2 | 44.7 | –
19 | O=C(O)C(F)(F)F.O=C(O)c1ccc(Cc2c(-c3cccc(-c4ccccc4)c3)nn(-c3nc(C(=O)O)cs3)c2O)cc1 [NCGC00356639-01] | -2.2 | -79 | -99 | 39.8 | – | – | -39 | 39.8 | -2.2 | – | – | – | – | – | – | – | Confirm? (confirmatory screen) [1, 6]: YES; IC50 [1, 9]: 50.1 µM; Curve Class (counterscreen) [2, 11]: -2.1
20 | NS(=O)(=O)c1ccc(Cc2cn(-c3nc(C(=O)O)cs3)nc2-c2ccc(F)c(F)c2)cc1.O=C(O)C(F)(F)F [NCGC00356753-01] | 4 | -27 | 54 | 56.2 | – | – | -29 | 31.6 | -2.4 | – | – | – | – | – | – | – | –
21 | O=C(NC1=CC(=O)c2ccccc2C1=O)c1ccccc1.O=C(O)C(F)(F)F [NCGC00357425-01] | – | – | – | – | – | – | -92 | 25.1 | – | -159 | YES | -1.1 | 11.2 | -113 | -1.1 | 11.2 | Curve Class [1, 4]: -1.1
